Bounds are passed on as bounds.

A word on the inhibition: it is the relative decrease from the control value, in per cent.

For this test, the target named is T1, hDGAT1 (Homo sapiens, UniProt O75907).
T1 sequence (O75907 1-488): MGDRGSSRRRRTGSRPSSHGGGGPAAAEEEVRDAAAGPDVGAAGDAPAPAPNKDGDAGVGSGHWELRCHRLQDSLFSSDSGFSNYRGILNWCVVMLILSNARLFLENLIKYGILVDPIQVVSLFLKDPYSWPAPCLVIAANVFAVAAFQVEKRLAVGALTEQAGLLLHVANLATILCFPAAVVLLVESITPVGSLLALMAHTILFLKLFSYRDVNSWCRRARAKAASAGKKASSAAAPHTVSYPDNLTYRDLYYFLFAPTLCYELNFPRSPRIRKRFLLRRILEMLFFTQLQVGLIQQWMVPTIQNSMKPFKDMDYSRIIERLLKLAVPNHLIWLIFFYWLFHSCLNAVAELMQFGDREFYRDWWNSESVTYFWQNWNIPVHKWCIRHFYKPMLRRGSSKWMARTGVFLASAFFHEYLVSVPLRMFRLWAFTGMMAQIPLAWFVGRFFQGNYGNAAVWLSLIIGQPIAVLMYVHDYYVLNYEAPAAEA
Kind of test: In-vitro DGAT1 assay (14C oleoyl CoA, hDGAT1 microsomes from Sf9 cells). To be noted: for inhibition at 1 µM: read-out: % Inhibition of hDGAT1; for % Inhibition of hDGAT1: at 1 μM.

Description: Sf9 cells were seeded in spinner flasks on day 0 at a cell density of 1×10^6 and infected on day 1 with hDGAT1 baculovirus at a multiplicity of infection (MOI) of 5 and a cell density of 2×10^6. On day 3 (or 66-72 h), cells were harvested and centrifuged at 2500×g for 10 min. Pellet was resuspended in lysis buffer (100 mM sucrose, 50 mM KCl, 40 mM KH2PO4, 30 mM EDTA, pH 7.2) and passed through 21-gauge needle approximately 10 times. […] The supernatant was subjected to centrifugation at 35,000 rpm in a Beckman Ti-45 rotor at 4° C. for 1 h. The resultant pellet containing the microsomes wasere resuspended overnight in 1 mL of lysis buffer and total protein concentration was estimated using Bradford Reagent. Microsomes were aliquoted and stored at −80° C.
Frozen aliquots of hDGAT1 containing microsomes were thawed (5-10 mg/mL total protein) on ice and diluted to a working stock of 1 mg/mL with DGAT Assay Buffer (DAB).
The assay was performed in duplicates in a reaction volume of 100 μL. […] Procedure:
The reaction was started by the addition of 2.5 μL of 1 mg/mL of microsomes (iv) to the mixture and incubated at 37° C. for 10 min. […] The mixture was vortexed and the triglycerides formed were extracted into the organic heptane phase.

On to `CC(C)[C@@H](C(=O)O)N1Cc2ccc(-c3ccc(NC(=O)Nc4ccc(F)c(F)c4)c(F)c3)cc2C1=O` [Example 440, (S)-2-(6-(4-(3-(3,4-Difluorophenyl)ureido)-3-fluorophenyl)-1-oxoisoindolin-2-yl)-3-methylbutanoic acid], for which the inhibition at 1 µM is greater than 50%.
In the case of `CC(C)[C@@H](C(=O)O)N1Cc2ccc(-c3ccc(NC(=O)Nc4ccccc4Cl)c(F)c3)cc2C1=O` [Example 442, (S)-2-(6-(4-(3-(2-Chlorophenyl)ureido)-3-fluorophenyl)-1-oxoisoindolin-2-yl)-3-methylbutanoic acid], the inhibition at 1 µM is greater than 50%.
With `CC(C)[C@@H](C(=O)O)N1Cc2ccc(-c3ccc(NC(=O)c4ccc(C(C)(C)C)cc4)c(F)c3)cc2C1=O` [Example 444, (S)-2-(6-(4-(4-tert-Butylbenzamido)-3-fluorophenyl)-1-oxoisoindolin-2-yl)-3-methylbutanoic acid], the inhibition at 1 µM is greater than 50%.
On to `CCCCCc1ccc(C(=O)Nc2ccc(-c3ccc4c(c3)C(=O)N([C@H](C(=O)O)C(C)C)C4)cc2F)cc1` [Example 446, (S)-2-(6-(3-Fluoro-4-(4-pentylbenzamido)phenyl)-1-oxoisoindolin-2-yl)-3-methylbutanoic acid], for which the inhibition at 1 µM is greater than 50%.
In the case of `CC(C)[C@@H](C(=O)O)N1Cc2ccc(-c3ccc(NC(=O)c4ccc(-c5ccccc5)cc4)c(F)c3)cc2C1=O` [Example 448, (S)-2-(6-(4-Biphenyl-4-ylcarboxamido-3-fluorophenyl)-1-oxoisoindolin-2-yl)-3-methylbutanoic acid], the “% Inhibition of hDGAT1” value was “++ (>50% Inhibition)”.
Consider `CC(C)[C@@H](C(=O)O)N1Cc2ccc(-c3ccc(NC(=O)c4ccc5ccccc5c4)c(F)c3)cc2C1=O` [Example 450, (S)-2-(6-(4-(2-Naphthamido)-3-fluorophenyl)-1-oxoisoindolin-2-yl)-3-methyl butanoic acid], for which the inhibition at 1 µM is greater than 50%.
Still for that read-out and setting: for `CCCCOc1ccc(C(=O)Nc2ccc(-c3ccc4c(c3)C(=O)N([C@H](C(=O)O)C(C)C)C4)cc2F)cc1` [Example 452, (S)-2-(6-(4-(4-Butoxybenzamido)-3-fluorophenyl)-1-oxoisoindolin-2-yl)-3-methyl butanoic acid] the value was greater than 50%; for `COc1cc(NC(=O)c2ccc(C(C)(C)C)cc2)ccc1-c1ccc2c(c1)C(=O)N([C@H](C(=O)O)C(C)C)C2` [Example 456, (S)-2-(6-(4-(4-tert-Butylbenzamido)-2-methoxyphenyl)-1-oxoisoindolin-2-yl)-3-methylbutanoic acid], 10 to 50%.
For `COc1cc(NC(=O)c2ccc(-c3ccccc3)cc2)ccc1-c1ccc2c(c1)C(=O)N([C@H](C(=O)O)C(C)C)C2` [Example 458, (S)-2-(6-(4-Biphenyl-4-ylcarboxamido-2-methoxyphenyl)-1-oxoisoindolin-2-yl)-3-methylbutanoic acid], the “% Inhibition of hDGAT1” value is on record as “++ (>50% Inhibition)”.
Consider `CCCCOc1ccc(C(=O)Nc2ccc(-c3ccc4c(c3)C(=O)N([C@H](C(=O)O)C(C)C)C4)c(OC)c2)cc1` [Example 460, (S)-2-(6-(4-(4-Butoxybenzamido)-2-methoxyphenyl)-1-oxoisoindolin-2-yl)-3-methylbutanoic acid], for which the inhibition at 1 µM lay within 10 to 50%.
On to `CCCCCc1ccc(C(=O)Nc2ccc(-c3ccc4c(c3)C(=O)N([C@H](C(=O)O)C(C)C)C4)c(OC)c2)cc1` [Example 462, (S)-2-(6-(2-Methoxy-4-(4-pentylbenzamido)phenyl)-1-oxoisoindolin-2-yl)-3-methylbutanoic acid], for which the inhibition at 1 µM lay within 10 to 50%.
As to `COc1cc(NC(=O)c2ccc(OC(F)(F)F)cc2)ccc1-c1ccc2c(c1)C(=O)N([C@H](C(=O)O)C(C)C)C2` [Example 464, (S)-2-(6-(2-Methoxy-4-(4-(trifluoromethoxy)benzamido)phenyl)-1-oxoisoindolin-2-yl)-3-methylbutanoic acid], the inhibition at 1 µM lay within 10 to 50%.
The same measure, in the same setting: the result for `Cc1cc(NC(=O)c2ccc(C(C)(C)C)cc2)ccc1-c1ccc2c(c1)C(=O)N([C@H](C(=O)O)C(C)C)C2` [Example 468, (S)-2-(6-(4-(4-tert-Butylbenzamido)-2-methylphenyl)-1-oxoisoindolin-2-yl)-3-methylbutanoic acid] reads greater than 50%.
As to `Cc1cc(NC(=O)c2ccc(-c3ccccc3)cc2)ccc1-c1ccc2c(c1)C(=O)N([C@H](C(=O)O)C(C)C)C2` [Example 470, (S)-2-(6-(4-Biphenyl-4-ylcarboxamido-2-methylphenyl)-1-oxoisoindolin-2-yl)-3-methylbutanoic acid], the “% Inhibition of hDGAT1” value is recorded as “++ (>50% Inhibition)”.
As for `CCCCOc1ccc(C(=O)Nc2ccc(-c3ccc4c(c3)C(=O)N([C@H](C(=O)O)C(C)C)C4)c(C)c2)cc1` [Example 472, (S)-2-(6-(4-(4-Butoxybenzamido)-2-methylphenyl)-1-oxoisoindolin-2-yl)-3-methylbutanoic acid], the inhibition at 1 µM is greater than 50%.
On the same count and under the same terms, for `CCCCCc1ccc(C(=O)Nc2ccc(-c3ccc4c(c3)C(=O)N([C@H](C(=O)O)C(C)C)C4)c(C)c2)cc1` [Example 474, (S)-3-Methyl-2-(6-(2-methyl-4-(4-pentylbenzamido)phenyl)-1-oxoisoindolin-2-yl)butanoic acid] the value was greater than 50%; for `Cc1cc(NC(=O)c2ccc(OC(F)(F)F)cc2)ccc1-c1ccc2c(c1)C(=O)N([C@H](C(=O)O)C(C)C)C2` [Example 476, (S)-3-Methyl-2-(6-(2-methyl-4-(4-(trifluoromethoxy)benzamido)phenyl)-1-oxoisoindolin-2-yl)butanoic acid], greater than 50%.
Consider `CC(C)[C@@H](C(=O)O)N1Cc2ccc(-c3ccc(NC(=O)c4ccc(C(C)(C)C)cc4)cc3Cl)cc2C1=O` [Example 480, (S)-2-(6-(4-(4-tert-Butylbenzamido)-2-chlorophenyl)-1-oxoisoindolin-2-yl)-3-methylbutanoic acid], for which the inhibition at 1 µM was greater than 50%.
Turning to `CC(C)[C@@H](C(=O)O)N1Cc2ccc(-c3ccc(NC(=O)c4ccc(-c5ccccc5)cc4)cc3Cl)cc2C1=O` [Example 482, (S)-2-(6-(4-Biphenyl-4-ylcarboxamido-2-chlorophenyl)-1-oxoisoindolin-2-yl)-3-methylbutanoic acid], the “% Inhibition of hDGAT1” value is recorded as “++ (>50% Inhibition)”.
Regarding `CCCCOc1ccc(C(=O)Nc2ccc(-c3ccc4c(c3)C(=O)N([C@H](C(=O)O)C(C)C)C4)c(Cl)c2)cc1` [Example 484, (S)-2-(6-(4-(4-Butoxybenzamido)-2-chlorophenyl)-1-oxoisoindolin-2-yl)-3-methylbutanoic acid], the inhibition at 1 µM was greater than 50%.
Same read-out and setting: the result for `CCCCCc1ccc(C(=O)Nc2ccc(-c3ccc4c(c3)C(=O)N([C@H](C(=O)O)C(C)C)C4)c(Cl)c2)cc1` [Example 486, (S)-2-(6-(2-Chloro-4-(4-pentylbenzamido)phenyl)-1-oxoisoindolin-2-yl)-3-methylbutanoic acid] reads greater than 50%; that for `CC(C)[C@@H](C(=O)O)N1Cc2ccc(-c3ccc(NC(=O)c4ccc(OC(F)(F)F)cc4)cc3Cl)cc2C1=O` [Example 488, (S)-2-(6-(2-Chloro-4-(4-(trifluoromethoxy)benzamido)phenyl)-1-oxoisoindolin-2-yl)-3-methylbutanoic acid], greater than 50%.
As for `CC(C)[C@@H](C(=O)O)N1Cc2ccc(-c3ccc(NC(=O)c4ccc(C(C)(C)C)cc4)nc3)cc2C1=O` [Example 492, (S)-2-(6-(6-(4-tert-Butylbenzamido)pyridin-3-yl)-1-oxoisoindolin-2-yl)-3-methylbutanoic acid], the inhibition at 1 µM is greater than 50%.
As to `CC(C)[C@@H](C(=O)O)N1Cc2ccc(-c3ccc(NC(=O)c4ccc(C(C)(C)C)cc4)nn3)cc2C1=O` [Example 498, (S)-2-(6-(6-(4-tert-Butylbenzamido)pyridazin-3-yl)-1-oxoisoindolin-2-yl)-3-methylbutanoic acid], the inhibition at 1 µM is greater than 50%.
Still for that read-out and setting: the result for `CCCCCc1ccc(C(=O)Nc2ccc(-c3ccc4c(c3)C(=O)N([C@H](C(=O)O)C(C)C)C4)nn2)cc1` [Example 500, (S)-3-Methyl-2-(1-oxo-6-(6-(4-pentylbenzamido)pyridazin-3-yl)isoindolin-2-yl)butanoic acid] reads greater than 50%; that for `CC(C)[C@@H](C(=O)O)N1Cc2ccc(-c3ccc(NC(=O)c4ccc(OC(F)(F)F)cc4)nn3)cc2C1=O` [Example 502, (S)-3-Methyl-2-(1-oxo-6-(6-(4-(trifluoromethoxy)benzamido)pyridazin-3-yl)isoindolin-2-yl)butanoic acid], greater than 50%; that for `CC(C)[C@@H](C(=O)O)N1Cc2ccc(-c3cnc(NC(=O)c4ccc(C(C)(C)C)cc4)cn3)cc2C1=O` [Example 505, (S)-2-(6-(5-(4-tert-Butylbenzamido)pyrazin-2-yl)-1-oxoisoindolin-2-yl)-3-methylbutanoic acid], 10 to 50%.
Turning to `CC(C)[C@@H](C(=O)O)N1Cc2ccc(-c3cnc(NC(=O)c4ccc(-c5ccccc5)cc4)cn3)cc2C1=O` [Example 507, (S)-2-(6-(5-Biphenyl-4-ylcarboxamidopyrazin-2-yl)-1-oxoisoindolin-2-yl)-3-methylbutanoic acid], the “% Inhibition of hDGAT1” value is on record as “++ (>50% Inhibition)”.
Take `CCCCOc1ccc(C(=O)Nc2cnc(-c3ccc4c(c3)C(=O)N([C@H](C(=O)O)C(C)C)C4)cn2)cc1` [Example 509, (S)-2-(6-(5-(4-Butoxybenzamido)pyrazin-2-yl)-1-oxoisoindolin-2-yl)-3-methylbutanoic acid]: the inhibition at 1 µM was greater than 50%.

Source of the values: patent publication US8748426B2, “Inhibitors of diacylglycerol acyl transferase” (Piramal Enterprises Limited, priority 2009, dated 2014).
